Measured values as given in US5198552A, “Indole derivative having antiviral, interferon-inducing and immunomodulatory effects” (priority 1991, dated 1993).
Where “and” joins values, the source holds several entries; their conditions need not be identical. Equal entries are not always repeated. Entries after “also recorded” stand apart in the source; their conditions may differ. Where two headings read alike, the source gives them in different places.

How the values were obtained:
[1] = test system: influenza A/B viruses; type: cell-based
[2] = test system: interferon; experiment: Interferon induction in mouse blood serum; type: in vivo, mice
[3] = clinical trials
[4] = Allergizing effect, guinea pigs; type: in vivo; conditions: subcutaneous injections and repeated skin applications
[5] = Long-term per os toxicity, guinea pigs; type: in vivo; conditions: per os 100 to 125 mg/kg over 3 months
[6] = test system: influenza A/B virus; experiment: Clinical trial against influenza A/B virus infection; type: in vivo, human; conditions: hydrochloride monohydrate
Description: The clinical checking of the preparation was performed in comparison to control groups o patients which were taken a symptomatic treatment.

[7] = Long-term per os toxicity, dogs; type: in vivo; conditions: per os 25 mg/kg over 6 months
[8] = Prolonged administration to animals; type: in vivo
[9] = test system: influenza viruses; experiment: Virucidal action on influenza viruses
[10] = test system: interferon; type: cell-based, hen; conditions: 20 µg/ml
[11] = Acute toxicity, single oral administration, mice; conditions: mouse, in vivo
[12] = Maximum tolerable concentration for chick embryo fibroblasts; type: cell-based; conditions: chicken
[13] = test system: Salmonella typhimurium; experiment: Mutagenic activity on Salmonella typhimurium; conditions: 50 to 1000 μm per disk
[14] = test system: influenza A virus (Bethezda) 63 (H2 N2), A (Aichi) (H3 N2); experiment: Preventive action in mouse influenzal pneumonia; type: in vivo, mice; conditions: for The decrease of lethality: P <0.01; for Lethality: absolute animal number: dead/total
Description: Its preventive effect was studied on a mouse influenzal pneumonia induced by infecting the animals intranasally with influenza A virus (Bethezda) 63 (H2 N2), A (Aichi) (H3 N2) and on a generalized mouse herpes, induced by intranasal infection of them with herpes simplex virus from antigen-type I L2 -strain.
A single administration of the preparation per os in the dose of 30 mg/kg 24 hours prior to infection prevents the death of 40% of animals suffering from a generalized herpetic infection.

[15] = test system: interferon; experiment: Interferon induction in human blood serum; type: in vivo
[16] = test system: stem cells; experiment: Inactivation of stem cells with allogenic lymphocytes (graft versus host, spleen endocolonies); type: in vivo, mice
[17] = test system: herpes simplex virus from antigen-type I L2 -strain; experiment: Preventive action in generalized mouse herpes; parameters: species or system mice; conditions: in vivo
[18] = test system: peritoneal macrophages; experiment: Absorbing capacity of mouse peritoneal macrophages (neutral red); type: in vivo, mice; parameters: Absorbing Capacity, percent of control: concentration or dose not given beside the values
[19] = Physical properties of the compound (heating, solubility, hygroscopicity, pH of solution); type: physicochemical
Description: The compound according to the invention is a crystalline powder, having a colour from white with tints of green-yellow to light-yellow with green hues; a bitter in taste, odourless. The melting point of the compound is not characteristic.
The solution containing 1 g of the compound in 1450 ml of water at 25° C. has pH of 4.37 (potentiometrically).

[20] = test system: sarcoma-45; experiment: Development of grafted sarcoma-45; type: in vivo, rats; conditions: for Sarcoma growth: 125 mg/kg daily during 5 days, p < 0.05
Text: Control animals were given only a starch solution. The dynamic development of the tumor was monitored by intravital measurements of its mass.

[21] = Effect on thermal skin lesion; conditions: in vivo
[22] = Long-term per os toxicity, rats; type: in vivo; conditions: per os 100 to 125 mg/kg during 6 months
[23] = Long-term per os toxicity, rabbits; type: in vivo; conditions: per os 50 mg/kg during 2 months
[24] = Localized irritant action in oral administration (hystological tests); type: in vivo
[25] = Allergizing effect, rabbits; type: in vivo; conditions: subcutaneous injections and repeated skin applications
[26] = test system: influenza A/B viruses; experiment: Medicinal effect on experimental influenzal pneumonia of mice induced by influenza A/B viruses; type: in vivo; conditions: hydrochloride monohydrate
[27] = patients with influenza virus infection
[28] = 31.2 mg/kg per os 24 and 6 hours before infecting
[29] = 62.5 mg/kg per os 24 and 6 hours before infecting
[30] = 125 mg/kg per os 24 and 6 hours before infecting
[31] = 1 day after single administration
[32] = 2 day after single administration

Compound: CCOC(=O)c1c(CSc2ccccc2)n(C)c2cc(Br)c(O)c(CN(C)C)c12.Cl.O [preparation of the invention, ethyl 6-bromo-5-hydroxy-4-dimethylaminomethyl-1-methyl-2-phenylthiomethylindole-3-carboxylate hydrochloride monohydrate]
- inhibition of influenza A/B virus reproduction / chemotherapeutical effect ([1]; hydrochloride monohydrate): shows a pronounced chemotherapeutical effect; also recorded: Inhibits the reproduction
- stage at which the virus-inhibiting effect is expressed ([1]; single-stage infection, 5 μm/ml, reducing infectivity titer and suppressing plague-forming activity): early stages of influenza viruses reproduction in cells: adsorption, penetration and probably deproteinization
- interferon induction on repeated administering ([2]; mice, repeated administering): a depressed reactivity state condition occurs in the animals
- Interferon titer ([2]; per os, 62.5 mg/kg, after 16 h): 320-640 U/ml
- Interferon titer ([2]; per os, 62.5 mg/kg, after 24 h): 640 U/ml
- Interferon titer ([2]; per os, 62.5 mg/kg, after 48 h): 160 U/ml
- Interferon titer ([2]; per os, 62.5 mg/kg, after 72 h): 40 U/ml
- Interferon titer ([2]; per os, 125 mg/kg, after 16 h): 640 U/ml
- Interferon titer ([2]; per os, 125 mg/kg, after 24 h): 320-640 U/ml
- Interferon titer ([2]; per os, 125 mg/kg, after 48 h): 640 U/ml
- Interferon titer ([2]; per os, 125 mg/kg, after 72 h): 160 U/ml
- Interferon titer ([2]; per os, 250 mg/kg, after 16 h): 320-540 U/ml
- Interferon titer ([2]; per os, 250 mg/kg, after 24 h): 640-1280 U/ml
- Interferon titer ([2]; per os, 250 mg/kg, after 48 h): 320 U/ml
- Interferon titer ([2]; per os, 250 mg/kg, after 72 h): 160 U/ml
- high interferon titers in mouse blood serum ([2]; per os, 250 to 62.5 mg/kg, 16 hours, persisted up to 48 hours): 640 U/ml
- toxicity / tolerability in patients [3]: non-toxic, is well tolerated by patients
- allergizing action [4]: did not exert an allergizing action
- pathological changes [5]: did not cause any pathological changes
- therapeutical efficacy against influenza A/B virus infection ([6]; human, in vivo, po): has the therapeutical effect on influenza A/B virus infections; also recorded: shortening the febrile period, intoxication and catarrhal conditions as well as by shortening the illness duration
- frequency of chronic disease exacerbations [6, 27]: considerably decreases the frequency of chronic disease exacerbations; also recorded: decreased considerably the frequency of chronic disease exacerbations
- postinfluenzal complications [6, 27]: prevents from post-influenzal complications; also recorded: prevented the development of postinfluenzal complications
- pathological changes [7]: did not cause any pathological changes
- alternations in parenchymatous organs [8]: may cause in animals the development of non-specific degenerative alternations in parenchymatous organs
- virucidal action on influenza viruses [9]: No virucidal action
- Interferon titer ([10]; 8 hours): 640-1280 U/ml
- maximum interferon titer ([10]; 24 hours): 2560 U/ml
- Interferon titer ([10]; by 48 hours): 320 U/ml
- LD50 [11]: 340 mg/kg
- MNTC [12]: 20 µg/mL
- mutagenic activity [13]: no mutagenic activity
- Lethality [14, 28]: 30%
- The decrease of lethality [14, 28]: 40%
- Lethality: absolute animal number [14, 28]: 12/40
- lowering of lethality as compared to control ([14]; 31.2 mg/kg to 125 mg/kg per os 24 and 6 hours before infecting): 40-50%
- Lethality [14, 29]: 20%
- The decrease of lethality [14, 29]: 50%
- Lethality: absolute animal number [14, 29]: 8/40
- Lethality [14, 30]: 20%
- The decrease of lethality [14, 30]: 50%
- Lethality: absolute animal number [14, 30]: 8/40
- volunteers with interferon induction ([15]; 3-times administration (300 mg), all 12): 100%
- Interferon titer ([15]; 3 times per day (300 mg)): 160-320 U/ml
- The number of positive reactions ([15]; 3 times per day (300 mg), 12 men): 12
- The number of positive reactions ([15]; 6 times per day during 2 days (600 mg), 12 men): 12
- Interferon titer ([15]; during 2 days (600 mg)): 40-80 U/ml
- development of hyporeactivity on increase in dose and duration ([15]; increase in dose and duration of administration): development of hyporeactivity in human beings
- Interferon titer ([15]; single administration (100 mg)): 40-80 U/ml
- The number of positive reactions ([15]; single administration per day (100 mg), 13 men): 8
- volunteers with interferon induction ([15]; single per os 100 mg, 8 out of 13): 61.5%
- The counts of spleen endocolonies (M ± m) ([16]; 1.25 × 10^6 lymphocytes): 2.5 ± 0.4
- The counts of spleen endocolonies (M ± m) ([16]; 2.5 × 10^6 lymphocytes): 1.6 ± 0.2
- The counts of spleen endocolonies (M ± m) ([16]; 5.0 × 10^6 lymphocytes): 0.3 ± 0.1
- effect on yield of spleen colonies under graft versus host conditions ([16]; preparation 100 mg per 1 kg orally, levamisole 5 mg per 1 kg, hydrochloride monohydrate): reduces both observed deviations as compared to control values if the concentration of introduced cells is not the highest; also recorded: normalizes the proliferative activity of target cells and their ability of producing a vital colony
- prevention of death [17]: 40%
- Lethality ([17]; hydrochloride monohydrate): 60% and 75%
- Lethality: absolute animal number ([17]; hydrochloride monohydrate): 12/20 and 15/20
- The decrease of lethality ([17]; hydrochloride monohydrate): 40% and 25%
- Absorbing Capacity of Peritoneal Macrophages [18, 31]: 27.7 ± 3.5 mg/6 × 10^6 cells
- Absorbing Capacity, percent of control [18, 31]: 125 ± 17%
- Absorbing Capacity of Peritoneal Macrophages [18, 32]: 33.6 ± 4.7 mg/6 × 10^6 cells
- Absorbing Capacity, percent of control [18, 32]: 147 ± 20.6%
- Absorbing Capacity of Peritoneal Macrophages ([18]; 3 day after single administration): 37.4 ± 3.7 mg/6 × 10^6 cells
- absorbing capacity of macrophages ([18]; by 2-3 days after a single administration, p<0.05): 164±13%
- stimulation of absorbing capacity of macrophages ([18]; in vivo): stimulates the absorbing capacity of macrophages to a greater extent than administration of levamisole
- effect on counts of macrophages washed off the peritoneal cavity ([18]; mouse, in vivo): no effect on counts of macrophages
- hygroscopicity [19]: non-hydroscopic
- pH of solution ([19]; 1 g of the compound in 1450 ml of water at 25° C., potentiometrically): 4.37
- behaviour when heated ([19]; heated for 3 hours at 110° to 120° C.): looses the molecule of H2 O
- solubility in water, methanol, ethanol ([19]; water, methanol, ethanol): poorly soluble
- Sarcoma growth ([20]; 1 month 10 days after grafting): 21.0 ± 3.9 cm^3
- Sarcoma growth ([20]; 1 month 16 days after grafting): 38.0 ± 7.5 cm^3
- Sarcoma growth ([20]; 1 month after grafting): 8.2 ± 1.4 cm^3
- Sarcoma growth ([20]; 2 months after grafting): 39.9 ± 9.7 cm^3
- effect on development of the tumor ([20]; 12 month period of observation, hydrochloride monohydrate): inhibition of the development of tumor was found; also recorded: inhibitory effect on the development of a massive tumor
- effect on a thermal skin lesion [21]: exert a thermoprotective action and reduce a thermal skin lesion
- pathological changes [22]: did not cause any pathological changes
- pathological changes [23]: did not cause any pathological changes
- localized irritant action [24]: no localized irritant action
- allergizing action [25]: did not exert an allergizing action
- medicinal (chemotherapeutical) effect on influenzal pneumonia [26]: shows a pronounced chemotherapeutical effect; also recorded: Exerts a medicinal effect
